Experimental data from US12306194B2, “Reagent for fluorescence imaging of lipid droplets in cell and tissue” (NATIONAL UNIVERSITY CORPORATION GUNMA UNIVERSITY, priority 2019, dated 2025).

Legend:
[1] = Measurement of fluorescence lifetime in solvents; assay type: physicochemical
Experimental: The fluorescence lifetime (τf) of each compound in each solvent was measured using a compact fluorescence lifetime measurement apparatus (Quntaurus-Tau, manufactured by Hamamatsu Photonics K.K.).

[2] = Measurement of maximum absorption wavelength, maximum fluorescence wavelength and fluorescence quantum yield in solvents; assay type: physicochemical
Experimental: Using a luminescent quantum yield measurement apparatus ([…]-01, manufactured by Hamamatsu Photonics K.K.), the maximum absorption wavelength (λabs/nm), the maximum fluorescence wavelength (λflu/nm), and the fluorescence quantum yield (Φf) of the compound in each solvent were measured. The absorption spectrum was measured using an ultraviolet and visible spectrophotometer (Ubest-550, manufactured by JASCO Corporation), and the fluorescence emission spectrum was measured using a fluorescence spectrophotometer (F-7000, manufactured by Hitachi, Ltd.)

[3] = system: 3T3-L1 cells (adipocytes); experiment: Intracellular retention property in 3T3-L1 cells; assay type: cell-based
Experimental: (§1) Using a fluorescence microscope (IX71, manufactured by Olympus Corporation), fluorescence imaging images of cells were acquired over time, and the photostability (It/I0) and the retention property were measured.
For evaluation of the intracellular retention property of each reagent, each fluorescent reagent was added to 3T3-L1 cells (adipocytes) to a final concentration of 100 nM (for Lipi-Green, 500 nM), and imaging images were acquired after 30 minutes of culture and 24 hours after washing away of the reagent.

[4] = system: lipid droplets in HeLa cells; experiment: Fluorescence imaging of lipid droplets in oleic acid-treated HeLa cells; assay type: cell-based
Source text: Since LipiDye requires use of an excitation wavelength of about 405 nm, there is a concern about phototoxicity to cells in cases of long observation.

[5] = system: 3T3-L1 cells (adipocytes); experiment: Intracellular photostability under excitation light in 3T3-L1 cells; assay type: cell-based; settings: summary grade, Table 3
Experimental: as §1
The photostability and the retention property are important factors in long-term measurement for, for example, tracing the processes of formation, fusion, and degradation of lipid droplets. Each fluorescent reagent was added to 3T3-L1 cells (adipocytes) to a final concentration of 100 nM, and the cells were cultured for 30 minutes. After washing the cells, the cells were irradiated with an excitation light required for imaging (450 to 500 nm; for LipiDye, an excitation wavelength of 400 to 440 nm), to evaluate the photostability. By regarding the time immediately after the irradiation as Second 0, imaging images were acquired at 20-second intervals for analysis of the image intensity.

[6] = 100 nM (Lipi-Green 500 nM), 3T3-L1 cells, 24 hours after washing away of the reagent

SMILES | τf (fluorescence lifetime) ([1]; in Bu2O (dibutyl ether)) | τf (fluorescence lifetime) ([1]; in MeCN) | Φf (fluorescence quantum yield) ([2]; in Bu2O (dibutyl ether)) | λmax abs (maximum absorption wavelength) ([2]; in Bu2O (dibutyl ether)) | λmax flu (maximum fluorescence wavelength) ([2]; in Bu2O (dibutyl ether)) | Φf (fluorescence quantum yield) ([2]; in MeCN) | λmax abs (maximum absorption wavelength) ([2]; in MeCN) | λmax flu (maximum fluorescence wavelength) ([2]; in MeCN) | Photostability [5] | intracellular retention property [3, 6] | Brightness in cells ([4]; summary grade, Table 3) | Selectivity for lipid droplets ([4]; summary grade, Table 3) | intracellular retention property ([3]; summary grade, Table 3) | imaging of lipid droplets / lipid droplet selectivity in HeLa cells ([4]; 100 nM reagent, 30 minutes, 400 μM oleic acid 48 hours) | fluorescence intensity of HeLa cells ([4]; 100 nM reagent, 30 minutes, compared with BODIPY493/503 or Lipi Green)
CC1=CC(C)=[N+]2C1=C(C)c1c(C)cc(C)n1[B-]2(F)F [BODIPY493/503] |  |  |  |  |  |  |  |  |  | remarkable decreases in the fluorescence intensity | Δ | ◯ |  |  | 
CCN(CC)c1ccc2cc3cc(-c4nc5ccccc5[nH]4)c(=O)oc3cc2c1 [PC6NH, 3-(1H-Benzo[d]imidazol-2-yl)-8-(diethylamino)-2H-benzo[g]chromen-2-one] | 2.79 ns | 3.78 ns | 0.89 | 458 nm | 523 nm | 0.82 | 477 nm | 604 nm |  |  |  |  |  |  | 
CCN(CC)c1ccc2nc3c4ccccc4c(=O)cc-3oc2c1 [Nile Red] |  |  |  |  |  |  |  |  | Δ | remarkable decreases in the fluorescence intensity | ◯ |  | Δ | low lipid droplet selectivity | higher fluorescence intensities

Further lines, with some results ahead:

τf (fluorescence lifetime) ([1]; in Bu2O (dibutyl ether)) | τf (fluorescence lifetime) ([1]; in MeCN) | Φf (fluorescence quantum yield) ([2]; in Bu2O (dibutyl ether)) | λmax abs (maximum absorption wavelength) ([2]; in Bu2O (dibutyl ether)) | λmax flu (maximum fluorescence wavelength) ([2]; in Bu2O (dibutyl ether)) | Φf (fluorescence quantum yield) ([2]; in MeCN) | λmax abs (maximum absorption wavelength) ([2]; in MeCN) | λmax flu (maximum fluorescence wavelength) ([2]; in MeCN) | Photostability [5] | SMILES | intracellular retention property [3, 6] | Brightness in cells ([4]; summary grade, Table 3) | Selectivity for lipid droplets ([4]; summary grade, Table 3) | intracellular retention property ([3]; summary grade, Table 3) | imaging of lipid droplets / lipid droplet selectivity in HeLa cells ([4]; 100 nM reagent, 30 minutes, 400 μM oleic acid 48 hours) | fluorescence intensity of HeLa cells ([4]; 100 nM reagent, 30 minutes, compared with BODIPY493/503 or Lipi Green)
3.53 ns | 4.08 ns | 0.67 | 438 nm | 512 nm | 0.77 | 449 nm | 590 nm |  | CCN(CC)c1ccc2cc3cc(-c4nc5ccccc5n4C)c(=O)oc3cc2c1 [PC6NMe, 8-(Diethylamino)-3-(1-methyl-1H-benzo[d]imidazol-2-yl)-2H-benzo[g]chromen-2-one] |  |  |  |  |  | 
2.83 ns | 3.70 ns | 0.86 | 460 nm | 530 nm | 0.80 | 478 nm | 613 nm |  | CCN(CC)c1ccc2cc3cc(-c4nc5ccccc5o4)c(=O)oc3cc2c1 [PC6O, 3-(Benzo[d]oxazol-2-yl)-8-(diethylamino)-2H-benzo[g]chromen-2-one] |  |  |  |  |  | 
